Measurements taken from patent publication US20260138961A1, “MODULATORS OF MITOCHONDRIAL DNA REPLICATION” (Pretzel Therapeutics, Inc., priority 2022, published 2026).

target: T1, wild type human POLγ (POLγA:WT) (Homo sapiens, UniProt P54098); test: DNA polymerization assay, wild type POLγ; assay type: biochemical; conditions: 100 μM dNTP, read-out: WT AC50 (μM) at 100 μM
T1 sequence (P54098 1-1239): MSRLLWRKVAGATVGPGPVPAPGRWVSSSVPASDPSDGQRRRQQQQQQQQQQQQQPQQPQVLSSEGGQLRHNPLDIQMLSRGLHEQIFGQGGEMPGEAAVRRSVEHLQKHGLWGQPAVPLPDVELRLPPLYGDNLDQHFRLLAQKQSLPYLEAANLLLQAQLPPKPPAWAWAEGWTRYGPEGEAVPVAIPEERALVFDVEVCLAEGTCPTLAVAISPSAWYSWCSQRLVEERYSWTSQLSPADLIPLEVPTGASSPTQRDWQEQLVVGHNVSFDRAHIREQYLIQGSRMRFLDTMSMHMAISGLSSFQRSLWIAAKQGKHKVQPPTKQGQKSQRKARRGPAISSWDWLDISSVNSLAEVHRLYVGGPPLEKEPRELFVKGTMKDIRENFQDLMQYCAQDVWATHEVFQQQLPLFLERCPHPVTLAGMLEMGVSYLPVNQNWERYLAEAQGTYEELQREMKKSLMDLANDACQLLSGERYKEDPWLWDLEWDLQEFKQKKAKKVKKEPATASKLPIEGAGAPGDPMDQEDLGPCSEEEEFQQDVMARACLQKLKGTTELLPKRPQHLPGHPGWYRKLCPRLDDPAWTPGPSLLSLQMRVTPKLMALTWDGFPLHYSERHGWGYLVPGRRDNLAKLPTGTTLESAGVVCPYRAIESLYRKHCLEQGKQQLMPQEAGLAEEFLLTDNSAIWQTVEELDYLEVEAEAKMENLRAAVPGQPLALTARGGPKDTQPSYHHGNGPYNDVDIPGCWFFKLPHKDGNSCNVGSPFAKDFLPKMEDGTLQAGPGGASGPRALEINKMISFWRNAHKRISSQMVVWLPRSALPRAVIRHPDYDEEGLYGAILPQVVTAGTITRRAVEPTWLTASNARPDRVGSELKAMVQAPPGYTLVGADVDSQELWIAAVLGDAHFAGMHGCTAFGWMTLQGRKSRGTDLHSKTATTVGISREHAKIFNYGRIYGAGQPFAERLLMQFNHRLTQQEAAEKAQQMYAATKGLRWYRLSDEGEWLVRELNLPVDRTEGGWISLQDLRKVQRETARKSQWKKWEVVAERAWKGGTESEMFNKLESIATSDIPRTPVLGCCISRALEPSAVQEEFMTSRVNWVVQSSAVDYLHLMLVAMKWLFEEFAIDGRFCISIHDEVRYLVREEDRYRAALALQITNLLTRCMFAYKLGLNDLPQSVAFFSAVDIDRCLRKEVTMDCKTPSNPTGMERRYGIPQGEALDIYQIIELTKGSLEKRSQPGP
T1 sequence (Q9UHN1 1-485 partner): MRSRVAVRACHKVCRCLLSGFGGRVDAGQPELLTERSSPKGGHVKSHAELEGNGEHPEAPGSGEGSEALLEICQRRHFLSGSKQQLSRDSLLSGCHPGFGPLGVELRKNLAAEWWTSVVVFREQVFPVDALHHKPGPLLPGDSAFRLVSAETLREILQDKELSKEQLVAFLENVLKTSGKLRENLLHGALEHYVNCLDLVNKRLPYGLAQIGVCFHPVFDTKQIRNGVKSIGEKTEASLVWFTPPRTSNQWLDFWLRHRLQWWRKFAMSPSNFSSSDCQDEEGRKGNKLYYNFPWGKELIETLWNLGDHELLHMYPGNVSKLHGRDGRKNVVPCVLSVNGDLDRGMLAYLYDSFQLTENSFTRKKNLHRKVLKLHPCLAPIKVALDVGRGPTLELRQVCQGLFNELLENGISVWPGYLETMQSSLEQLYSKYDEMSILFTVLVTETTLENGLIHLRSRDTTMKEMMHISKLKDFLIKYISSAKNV

Structure (SMILES) | AC50 [µM]
Cc1cc(S(=O)(=O)Nc2csc(C3CCOCC3)n2)c(C)cc1Cl [Example 167, 4-chloro-2,5-dimethyl-N-(2-(tetrahydro-2H-pyran-4-yl)thiazol-4-yl)benzenesulfonamide] | 4
Cc1cc(S(=O)(=O)Nc2cn(Cc3ccccc3)cn2)c(C)cc1Cl [Example 168, N-(1-benzyl-1H-imidazol-4-yl)-4-chloro-2,5-dimethylbenzenesulfonamide] | > 10
Cc1cc(S(=O)(=O)Nc2cn(-c3ccccc3)cn2)c(C)cc1Cl [Example 169, 4-chloro-2,5-dimethyl-N-(1-phenyl-1H-imidazol-4-yl)benzenesulfonamide] | > 10
Cc1cc(S(=O)(=O)Nc2cn(C)c(-c3ccccc3)n2)c(C)cc1Cl [Example 170, 4-chloro-2,5-dimethyl-N-(1-methyl-2-phenyl-1H-imidazol-4-yl)benzenesulfonamide] | > 10
Cc1cc(S(=O)(=O)Nc2cnn(-c3ccccc3)n2)c(C)cc1Cl [Example 171, 4-chloro-2,5-dimethyl-N-(2-phenyl-2H-1,2,3-triazol-4-yl)benzenesulfonamide] | 5
Cc1cc(S(=O)(=O)Nc2csc(C(=O)N(C)CC(N)=O)n2)c(C)cc1Cl [Example 172, N-(2-amino-2-oxoethyl)-4-((4-chloro-2,5-dimethylphenyl)sulfonamido)-N-methylthiazole-2-carboxamide] | > 100
Cc1cc(S(=O)(=O)Nc2csc(-c3ccccn3)n2)c(C)cc1Cl [Example 173, 4-chloro-2,5-dimethyl-N-(2-(pyridin-2-yl)thiazol-4-yl)benzenesulfonamide] | 0.2
Cc1cc(S(=O)(=O)Nc2csc(C(=O)N3CCC[C@H]3C)n2)c(C)cc1Cl [Example 174, (R)-4-chloro-2,5-dimethyl-N-(2-(2-methylpyrrolidine-1-carbonyl)thiazol-4-yl)benzenesulfonamide] | 0.1
Cc1cc(S(=O)(=O)Nc2csc(C(=O)N3CCC[C@@H]3C)n2)c(C)cc1Cl [Example 175, (S)-4-chloro-2,5-dimethyl-N-(2-(2-methylpyrrolidine-1-carbonyl)thiazol-4-yl)benzenesulfonamide] | 3
Cc1cc(S(=O)(=O)Nc2csc(-c3ccncc3)n2)c(C)cc1Cl [Example 176, 4-chloro-2,5-dimethyl-N-(2-(pyridin-4-yl)thiazol-4-yl)benzenesulfonamide] | > 100
Cc1cc(S(=O)(=O)Nc2csc(C(=O)N(CC(N)=O)C3CCCC3)n2)c(C)cc1Cl [Example 177, N-(2-amino-2-oxoethyl)-4-((4-chloro-2,5-dimethylphenyl)sulfonamido)-N-cyclopentylthiazole-2-carboxamide] | > 100
Cc1cc(S(=O)(=O)Nc2csc(-n3cccn3)n2)c(C)cc1Cl [Example 178, N-(2-(1H-pyrazol-1-yl)thiazol-4-yl)-4-chloro-2,5-dimethylbenzenesulfonamide] | > 100
Cc1cc(S(=O)(=O)Nc2csc(C(=O)N(CC(N)=O)C3CCCCC3)n2)c(C)cc1Cl [Example 179, N-(2-amino-2-oxoethyl)-4-((4-chloro-2,5-dimethylphenyl)sulfonamido)-N-cyclohexylthiazole-2-carboxamide] | > 10
Cc1cc(S(=O)(=O)Nc2nc(-c3ccccc3)n(C)n2)c(C)cc1Cl [Example 180, 4-chloro-2,5-dimethyl-N-(1-methyl-5-phenyl-1H-1,2,4-triazol-3-yl)benzenesulfonamide] | > 10
Cc1cc(S(=O)(=O)Nc2csc(-c3ccn(C)n3)n2)c(C)cc1Cl [Example 181, 4-chloro-2,5-dimethyl-N-(2-(1-methyl-1H-pyrazol-3-yl)thiazol-4-yl)benzenesulfonamide] | > 10
Cc1cc2cc(NS(=O)(=O)c3cc(C)c(Cl)cc3C)ccc2[nH]1 [Example 184, 4-chloro-2,5-dimethyl-N-(2-methyl-1H-indol-5-yl)benzenesulfonamide] | > 100
